Data reported in publication PMC6316393, “Cytotoxic Sesterterpenes from Thai Marine Sponge Hyrtios erectus” (Marine Drugs, 2018).
Like-named read-outs stand apart in the source and are kept apart here.

How the values were obtained:
[1] = system: HeLa (human cervical carcinoma); test: MTT cytotoxicity assay, HeLa
Method: (§1) The SI value is the ratio of IC50 of normal cell (MRC-5) and IC50 of cancer cell line.
(§2) Cytotoxic activity for adhesive cell lines including HepG2, HeLa, HuCCA-1, A549, H69AR, KB, T47D, MDA-MB-231, and MRC-5 cell lines were evaluated with the 3-(4,5-dimethylthiazol-2-yl)-2,5-diphenyltetrazoliumbromide (MTT) assay. For the non-adhesive MOLT-3 cell line, the cytotoxicity was assessed using the 2,3-bis-(2-methoxy-4-nitro-5-sulphenyl-(2H)-tetrazolium-5-carboxanilide (XTT) assay. Etoposide and doxorubicin were used as positive controls (Table 4)

[2] = system: MDA-MB-231 (hormone independent breast cancer); test: MTT cytotoxicity assay, MDA-MB-231
Method: as §1, §2

[3] = system: MOLT-3 (acute lymphoblastic leukemia); test: XTT cytotoxicity assay, MOLT-3; conditions: for selectivity index (SI), MOLT-3: ratio of IC50 of normal cell (MRC-5) and IC50 of MOLT-3
Method: as §1, §2

[4] = system: A549 (non-small-cell lung cancer); test: MTT cytotoxicity assay, A549
Method: as §1, §2

[5] = system: HuCCA-1 (human chlolangiocarcinoma); test: MTT cytotoxicity assay, HuCCA-1
Method: as §1, §2

HepG2 (hepatocarcinoma) = test: MTT cytotoxicity assay, HepG2
Method: as §1, §2

[6] = MTT cytotoxicity assay, MRC-5 normal cells; conditions: human
Method: as §1, §2

[7] = system: MRC-5 (normal embryonic lung cell); test: MTT cytotoxicity assay, MRC-5 normal cells; conditions: read-out: Cytotoxicity IC50, MRC-5; MRC-5 normal cell line, MTT assay
Method: as §1, §2

[8] = system: L1210 (mouse lymphocytic leukemia); conditions: read-out: Cytotoxicity IC50, L1210, cited from earlier work
[9] = system: KB (mouth epidermal carcinoma); design: method as in PMID 8149454; conditions: previously reported; read-out: Cytotoxicity IC50, KB; cited from earlier work
[10] = system: KB (human epidermoid carcinoma in the mouth); test: MTT cytotoxicity assay, KB; format: cell-based; conditions: KB cell line
Method: as §1, §2

[11] = system: H69AR (multidrug resistance small-cell lung cancer); test: MTT cytotoxicity assay, H69AR; format: cell-based; conditions: Homo sapiens, H69AR cell line
Method: (§3) Cytotoxic activity for adhesive cell lines including HepG2, HeLa, HuCCA-1, A549, H69AR, KB, T47D, MDA-MB-231, and MRC-5 cell lines were evaluated with the 3-(4,5-dimethylthiazol-2-yl)-2,5-diphenyltetrazoliumbromide (MTT) assay [25, 26]. For the non-adhesive MOLT-3 cell line, the cytotoxicity was assessed using the 2,3-bis-(2-methoxy-4-nitro-5-sulphenyl-(2H)-tetrazolium-5-carboxanilide (XTT) assay [27]. Etoposide and doxorubicin were used as positive controls (Table 4)

[12] = system: T47D (hormone dependent breast cancer); test: MTT cytotoxicity assay, T47D; format: cell-based; conditions: Homo sapiens, T47D cell line
Method: as §3

A549 cells = system: A549 cells; design: method as in PMID 12662110; conditions: reported in the literature; read-out: Cytotoxicity IC50, A549; cited from earlier work
[13] = Homo sapiens, HeLa, read-out: Cytotoxicity IC50, HeLa, HeLa cell line, MTT assay
[14] = Homo sapiens, MDA-MB-231, read-out: Cytotoxicity IC50, MDA-MB-231, MDA-MB-231 cell line, MTT assay
[15] = Homo sapiens, MOLT-3, read-out: Cytotoxicity IC50, MOLT-3, MOLT-3 cell line, XTT assay
[16] = Homo sapiens, A549, read-out: Cytotoxicity IC50, A549, A549 cell line, MTT assay
[17] = Homo sapiens, HuCC-A1, read-out: Cytotoxicity IC50, HuCCA-1, HuCCA-1 cell line, MTT assay
[18] = Homo sapiens, HepG2, read-out: Cytotoxicity IC50, HepG2, HepG2 cell line, MTT assay
[19] = read-out: Cytotoxicity IC50, HeLa, HeLa cell line, MTT assay
[20] = read-out: Cytotoxicity IC50, MDA-MB-231, MDA-MB-231 cell line, MTT assay
[21] = MRC-5 cells (normal embryonic lung cells), Cytotoxicity IC50, MRC-5, MRC-5 normal cell line, MTT assay
[22] = Homo sapiens, HeLa, read-out: Cytotoxicity IC50, HeLa
[23] = Homo sapiens, MDA-MB-231, read-out: Cytotoxicity IC50, MDA-MB-231
[24] = Homo sapiens, MOLT-3, read-out: Cytotoxicity IC50, MOLT-3
[25] = Homo sapiens, A549, read-out: Cytotoxicity IC50, A549
[26] = Homo sapiens, HuCC-A1, read-out: Cytotoxicity IC50, HuCCA-1
[27] = Homo sapiens, HepG2, read-out: Cytotoxicity IC50, HepG2

Molecule | IC50 [1, 13] | IC50 [2, 14] | IC50 [3, 15] [µM] | IC50 [4, 16] | IC50 [5, 17] | IC50 (HepG2 (hepatocarcinoma); [18]) | other results
4-((2R)-2-hydroxy-16-methyloctadecyl)furan-2(5H)-one [Compound 5] |  |  |  |  |  |  | IC50 [1]: 28.8 µM; IC50 [2]: 89.3 µM; IC50 [3]: 31.8 µM; IC50 [4]: 57.2 µM; IC50 [5]: 65.6 µM; IC50 (HepG2 (hepatocarcinoma)): 107 µM
COC1OC(=O)C=C1C(O)CC=C(C=O)CCC=C(C)CCC1=C(C)CCCC1(C)C (stereo not drawn) [Compound 3, seco-manoalide-25-methyl ether] | 20 µM | 40.1 µM | 15.8 | 41.1 µM | 24.7 µM | 27.9 µM | 
CC(=O)OC/C(=C\CC1OC(=O)C=C1CO)CC/C=C(\C)CCC1=C(C)CCCC1(C)C (stereo not drawn) [Compound 7, (6Z)-neomanoalide-24-acetate] | 88 µM | > 50 µg/mL | 40.1 | > 50 µg/mL | > 50 µg/mL | > 50 µg/mL | 
COC1OC(C2=CC(=O)OC2O)CC=C1CCC=C(C)CCC1=C(C)CCCC1(C)C (stereo not drawn) [Compound 8, 24-O-methylmanoalide] |  |  | 1.77 | 16.8 µM | 11 µM | 53.5 µM | IC50 [1, 19]: 8.42 µM; IC50 [2, 20]: 39.5 µM; selectivity index (SI), MOLT-3 [3]: 7; IC50 [6, 21]: 13 µM
COC1OC(C2=CC(=O)OC2O)CC=C1CCC=C(C)CCC1=C(C)CCCC1(C)C (stereo not drawn) [Compound 9, 24-O-methylmanoalide] |  |  |  |  |  |  | selectivity index (SI), HeLa ([1]; ratio of IC50 of normal cell (MRC-5) and IC50 of HeLa): 7; IC50 [1, 19]: 1.51 µM; IC50 [2, 20]: 18.6 µM; selectivity index (SI), MOLT-3 [3]: 8; IC50 ([3]; read-out: Cytotoxicity IC50, MOLT-3, MOLT-3 cell line, XTT assay): 1.3 µM; IC50 ([4]; read-out: Cytotoxicity IC50, A549, A549 cell line, MTT assay): 12 µM; IC50 ([5]; read-out: Cytotoxicity IC50, HuCCA-1, HuCCA-1 cell line, MTT assay): 8.6 µM; IC50 [7]: 10.8 µM; IC50 (HepG2 (hepatocarcinoma); read-out: Cytotoxicity IC50, HepG2, HepG2 cell line, MTT assay): 27.9 µM
CC1=C(CC/C(C)=C/CC/C(=C/C[C@@H](O)C2=CC(=O)OC2)CO)C(C)(C)CCC1 [Compound 10, luffariolide B] | 78.7 µM | > 50 µg/mL | 35.5 | > 50 µg/mL | > 50 µg/mL | > 50 µg/mL | IC50 [8]: 3.23 µM
CC1=C(CC/C(C)=C/CCC2=CC[C@H](C3=CC(=O)O[C@H]3O)O[C@H]2O)C(C)(C)CCC1 [Compound 11, manoalide] |  |  |  |  |  |  | IC50 [9]: 0.63 µM; IC50 [1, 22]: 87 µM; IC50 [2, 23]: > 50 µg/mL; IC50 [3, 24]: 17.4 µM; IC50 [4, 25]: > 50 µg/mL; IC50 ([8]; previously reported): 0.053 µM; IC50 [5, 26]: 84.5 µM; IC50 (HepG2 (hepatocarcinoma); [27]): > 50 µg/mL
CC1=C(CC/C(C)=C/CC/C(=C\CC2OC(=O)C=C2CO)CO)C(C)(C)CCC1 (stereo not drawn) [Compound 12, (6E)-neomanoalide] | 79.2 µM | > 50 µg/mL | 37.8 | > 50 µg/mL | 119 µM | > 50 µg/mL | IC50 [8]: 24.4 µM
CC1=C(CC/C(C)=C/CC/C(=C/CC2OC(=O)C=C2CO)CO)C(C)(C)CCC1 (stereo not drawn) [Compound 13, (6Z)-neomanoalide] | 59.3 µM | 92 µM | 34.1 | 114 µM | 94.7 µM | 88.7 µM | IC50 [8]: 13.9 µM
CC1=C(CC/C(C)=C/CC/C(C=O)=C\C[C@@H](O)C2=CC(=O)OC2O)C(C)(C)CCC1 (stereo partly drawn) [Compound 14, seco-manoalide] |  |  |  |  |  |  | IC50 [1, 22]: 21.8 µM; IC50 [2, 23]: 84.1 µM; IC50 [3, 24]: 6.68 µM; IC50 [4, 25]: 58.1 µM; IC50 [5, 26]: 47.4 µM; IC50 [6]: 17.5 µM; IC50 (HepG2 (hepatocarcinoma); [27]): 102 µM
CC(=O)O[C@H]1C[C@H]2[C@]3(C)CC[C@H]4C(C)(C)CCC[C@]4(C)[C@H]3C[C@@H](O)[C@]2(C)c2cocc21 [Compound 15, scalarafuran] | 63.1 µM | 14 µM |  |  | 49.1 µM |  | IC50 [10]: 58.4 µM; IC50 [11]: 51.4 µM; IC50 [12]: 28 µM
CC1=C(CC[C@@](C)(O)[C@@H]2CCC(=O)O2)C(C)(C)CCC1 [Compound 16, cavernosine] | 77.5 µM | > 50 µg/mL | 124 | > 50 µg/mL | > 50 µg/mL | > 50 µg/mL | 
CC(=O)O[C@@H]1CC2[C@@]3(C)CCCC(C)(C)C3CC[C@@]2(C)C2CCC3=C(C(=O)OC3)[C@]21C (stereo partly drawn) [Compound 17, 12-acetylscalarolide] | 63.1 µM | 60.8 µM |  |  | 60.8 µM |  | IC50 [10]: 63.1 µM; IC50 [11]: 107 µM; IC50 [12]: 42.1 µM
CC1(C)CCC[C@@]2(C)C1CC[C@]1(C)C2C[C@@H](O)[C@]2(C)C3COC(=O)C3=CCC12 (stereo partly drawn) [Compound 18, 12-epi-O-deacetyl-19-deoxyscalarin] | 23.3 µM | 5.96 µM |  |  | 41.5 µM |  | IC50 [10]: 6.99 µM; IC50 [11]: 57 µM; IC50 [12]: 5.18 µM
CC(=O)O[C@@H]1CC2[C@@]3(C)CCCC(C)(C)C3CC[C@@]2(C)C2CC=C3C(=O)OC(O)C3[C@]21C (stereo partly drawn) [Compound 19, 12-epi-scalarin] | 65.3 µM |  | 13.8 | 60.8 µM | 60.8 µM | 75.5 µM | 
CC1(C)CCC[C@@]2(C)C1CC[C@]1(C)C2C[C@@H](O)[C@]2(C)C3C(=CCC12)C(=O)OC3O (stereo partly drawn) [Compound 20, 12-O-deacetyl-12-epi-scalarin] |  |  | 7.64 | 73.4 µM | 87.1 µM | 27.4 µM | selectivity index (SI), MOLT-3 [3]: 9; IC50 (A549 cells): 36.8 µM; IC50 [6, 21]: 71 µM
COC(=O)c1cc2c(cn1)[nH]c1ccc(O)cc12 [Compound 23, variabine B] | > 50 µg/mL |  | 78 | > 50 µg/mL | > 50 µg/mL | > 50 µg/mL | 
COc1cccc2c1C(=O)c1c(O)c3c(c(O)c1C2=O)C[C@@](O)(C(=O)CO)C[C@@H]3O[C@H]1C[C@H](N)[C@H](O)[C@H](C)O1 [Doxorubicin, reference compound] | 0.19 µM | 1.64 ± 0.17 µM |  | 0.35 ± 0.02 µM | 0.4 ± 0.03 µM | 0.36 ± 0.05 µM | IC50 [10]: 1.64 ± 0.15 µM; IC50 [6, 21]: 3.16 ± 0.1 µM
COc1cc([C@@H]2c3cc4c(cc3[C@@H](O[C@@H]3O[C@@H]5CO[C@@H](C)O[C@H]5[C@H](O)[C@H]3O)[C@H]3COC(=O)[C@H]23)OCO4)cc(OC)c1O [Etoposide, reference compound] |  |  | 0.04 ± 0.01 |  |  |  | 
